Measured values as given in publication PMC7418559, “Synthesis and SAR of Tetracyclic Inhibitors of Protein Kinase CK2 Derived from Furocarbazole W16” (Chemmedchem, 2020).

Legend:
holoenzyme CK2α2β2 = target: T1, holoenzyme CK2α2β2 (Homo sapiens, UniProt P68400); test: Capillary electrophoresis (CE) assay, enzyme inhibition of the holoenzyme; format: biochemical; details: c=10 μM; CE assay; mean±SD of three experiments; n.s.=not significant; read-out: Inhibition (%) of CK2α2β2
T1 construct: made in house; host or cells: E. coli BL21(DE3)
T1 sequence (P68400 whole entry): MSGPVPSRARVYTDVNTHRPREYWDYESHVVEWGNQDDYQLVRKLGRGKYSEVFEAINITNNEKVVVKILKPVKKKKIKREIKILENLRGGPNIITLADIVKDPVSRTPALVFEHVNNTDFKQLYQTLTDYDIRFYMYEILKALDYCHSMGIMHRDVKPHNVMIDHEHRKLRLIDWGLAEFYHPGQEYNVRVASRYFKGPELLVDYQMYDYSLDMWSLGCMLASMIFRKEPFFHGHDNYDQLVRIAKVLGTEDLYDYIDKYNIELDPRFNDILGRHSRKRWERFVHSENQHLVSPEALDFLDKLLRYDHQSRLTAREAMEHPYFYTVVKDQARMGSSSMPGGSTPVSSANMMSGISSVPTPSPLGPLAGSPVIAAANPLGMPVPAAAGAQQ
Method: In this assay, the decapeptide […], a known class I substrate suitable for assaying the kinase activity of both the CK2 holoenzyme and the catalytically active CK2 subunits,50, 58 was reacted with ATP in the presence of enzyme, which transfers a phosphate group to Ser7 of the decapeptide. Due to the additional negative charge of the phosphate group, the decapeptide and the phosphorylated decapeptide can be separated by CE.
Enzymatic activities with or without inhibitors were determined for the holoenzyme (CK2α2β2), the CK2α subunit, and the mutated CK2α′ ^C336S subunit by a capillary electrophoresis assay as described before.59 For this purpose, CK2α as well as (CK2α2β2) holoenzyme were purified after recombinant expression in E. coli BL21(DE3) and purified according the protocol of Grankowski et al.62 The mutated CK2α′ ^C336S subunit was purified by Ni‐NTA affinity chromatography using an N‐terminally attached His6 tag. […] For both CK2α subunits an assay buffer containing 100 mM NaCl instead of 60 mM NaCl as for the holoenzyme, and 20 mM MgCl2 instead of 10 mM MgCl2 was applied. For the holoenzyme, 1 μg was added, whereas for CK2α and the mutated CK2α′ ^C336S subunit 0.25 μg was added each. For each compound inhibition was determined three times independently at an initial concentration of 10 μM and the mean value and the standard deviation (SD) were calculated.

[1] = target: T2, CK2α/CK2β interaction (CK2α^1−335 / fluorescently labeled CK2β^1−193) (Homo sapiens, UniProt P68400); details: MST; global fit with K D = […] nM; mean±SEM of 2–4 experiments; prec.=precipitation, n.s.=not significant
T2 sequence (P68400 1-335): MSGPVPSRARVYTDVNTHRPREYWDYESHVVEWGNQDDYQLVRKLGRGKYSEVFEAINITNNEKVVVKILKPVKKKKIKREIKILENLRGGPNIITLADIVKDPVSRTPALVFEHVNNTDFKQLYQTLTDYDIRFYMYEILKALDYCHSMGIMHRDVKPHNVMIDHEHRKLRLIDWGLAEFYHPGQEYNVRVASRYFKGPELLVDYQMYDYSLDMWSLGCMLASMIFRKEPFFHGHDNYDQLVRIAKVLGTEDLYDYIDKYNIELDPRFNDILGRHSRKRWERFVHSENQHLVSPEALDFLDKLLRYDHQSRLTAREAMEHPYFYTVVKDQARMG
Method: The inhibition of the interaction between the CK2α and the CK2β subunit was determined in a microscale thermophoresis (MST) assay.
To quantify the protein‐protein interaction in the presence of potential inhibitors, the investigated compounds were first dissolved in DMSO (2‐10 mM) and then 50‐fold diluted in ITC buffer (25 mM Tris‐HCl, 500 mM NaCl, pH 8.5) containing 0.1 % (v/v) Tween 20 to concentrations of either 40, 100 or 200 μM in 2 % (v/v) DMSO, i. e. twice the final concentrations: 20, 50 and 100 μM, respectively, in 1 % (v/v) DMSO, 0.05 % (v/v) Tween 20. […] MST traces were recorded at room temperature using a Nanotemper Monolith™ NT.115 Series Instrument with Monolith™ NT.115 standard treated capillaries and normalized to initial fluorescence (MO.Affinity Analysis, Nanotemper). […] Next, the statistical significance of the shift from K D to K D’ was determined for each compound by means of an unpaired Student's t test (Table S4). […] Data was analyzed and statistically evaluated with the program GraphPad Prism v.5.04 for Windows (GraphPad Software, San Diego, CA, USA).
a Shown are mean  SEM values of KD and KD’ for n separate experiments.
significant (n. s.), P > 0.05; *, P ≤ 0.05; **, P ≤ 0.01; ***, P ≤ 0.001; ****, P ≤ 0.0001. prec.

SMILES	inhibition at 10 µM (holoenzyme CK2α2β2) [%]	Inhibition of CK2α/CK2β2 interaction K i [1]
COc1cc([C@H]2c3c([nH]c4ccccc34)[C@H](C(=O)N3C(=O)OC[C@H]3Cc3ccccc3)[C@H]3C(=O)NC(=O)[C@@H]23)cc(OC)c1OC [(+)‐9 d]	< 50	n.s.
COc1cc([C@H]2c3c([nH]c4ccccc34)[C@H](C(=O)N3C(=O)OC[C@@H]3Cc3ccccc3)[C@H]3C(=O)NC(=O)[C@@H]23)cc(OC)c1OC [(+)‐9 c]	< 50	prec.
COc1cc([C@H]2c3c([nH]c4ccccc34)[C@H](C(=O)N[C@@H](CO)Cc3ccccc3)[C@H]3C(=O)NC(=O)[C@@H]23)cc(OC)c1OC [(+)‐14 d]	< 50	n.s.
COc1cc([C@H]2c3c([nH]c4ccccc34)[C@H](C(=O)N[C@H](CO)Cc3ccccc3)[C@H]3C(=O)NC(=O)[C@@H]23)cc(OC)c1OC [(+)‐14 c]	< 50	n.s.

Next, values leading:

inhibition at 10 µM (holoenzyme CK2α2β2) [%]	Inhibition of CK2α/CK2β2 interaction K i [1]	SMILES
< 50	n.s.	COc1cc([C@@H]2c3c([nH]c4ccccc34)[C@@H](C(=O)N3C(=O)OC[C@@H]3Cc3ccccc3)[C@@H]3C(=O)NC(=O)[C@H]23)cc(OC)c1OC [(−)‐9 d]
< 50	prec.	COc1cc([C@@H]2c3c([nH]c4ccccc34)[C@@H](C(=O)N3C(=O)OC[C@H]3Cc3ccccc3)[C@@H]3C(=O)NC(=O)[C@H]23)cc(OC)c1OC [(‐)‐9 c]
< 50	n.s.	COc1cc([C@@H]2c3c([nH]c4ccccc34)[C@@H](C(=O)N[C@H](CO)Cc3ccccc3)[C@@H]3C(=O)NC(=O)[C@H]23)cc(OC)c1OC [(−)‐14 d]
